Our source for the T/C values is PubChem BioAssay AID256 (DTP/NCI, 2004).

In this assay the test system is CD2F1 mice, L1210 leukemia ip, survival T/C. The experiment in a line: NCI In Vivo Anticancer Drug Screen. Data for tumor model L1210 Leukemia (intraperitoneal) in CD2F1 (CDF1) mice. To be noted: higher = longer survival. The gist of the method:
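Ratio T/C, where T is the treated-group value and C the vehicle-dosed control value, from mice implanted with a transplantable tumor.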

Where [1] appears, read: endpoint: mean survival time, dose: 100.0 mg/kg/injection, schedule: Q04DX003 (ip), vehicle: saline with Tween-80.
Where [2] appears, read: endpoint: mean survival time, dose: 200.0 mg/kg/injection, schedule: Q04DX003 (ip), vehicle: saline with Tween-80.
[3] abbreviates: endpoint: mean survival time, dose: 400.0 mg/kg/injection, schedule: Q04DX003 (ip), vehicle: saline with Tween-80.
Where [4] appears, read: endpoint: mean survival time, dose: 50.0 mg/kg/injection, schedule: Q01DX009 (ip), vehicle: saline.
The mark [5] stands for this setting: endpoint: mean survival time, dose: 100.0 mg/kg/injection, schedule: Q01DX009 (ip), vehicle: saline.
[6] abbreviates: endpoint: mean survival time, dose: 100.0 mg/kg/injection, schedule: Q01DX009 (ip), vehicle: saline with Tween-80.
Setting [7] is: endpoint: mean survival time, dose: 400.0 mg/kg/injection, schedule: Q01DX009 (ip), vehicle: saline with Tween-80.
The mark [8] stands for this setting: endpoint: mean survival time, dose: 100.0 mg/kg/injection, schedule: Q04DX002 (ip), vehicle: saline with Tween-80.
Setting [9] is: endpoint: mean survival time, dose: 200.0 mg/kg/injection, schedule: Q04DX002 (ip), vehicle: saline with Tween-80.
Setting [10] is: endpoint: mean survival time, dose: 400.0 mg/kg/injection, schedule: Q04DX002 (ip), vehicle: saline with Tween-80.
The mark [11] stands for this setting: endpoint: mean survival time, dose: 200.0 mg/kg/injection, schedule: Q01DX009 (ip), vehicle: saline with Tween-80.
Where [12] appears, read: endpoint: mean survival time, dose: 100.0 mg/kg/injection, schedule: Q04DX003 (ip), vehicle: saline.
Where [13] appears, read: endpoint: mean survival time, dose: 25.0 mg/kg/injection, schedule: Q04DX003 (ip), vehicle: saline.
Where [14] appears, read: endpoint: mean survival time, dose: 50.0 mg/kg/injection, schedule: Q04DX003 (ip), vehicle: saline.

Structures are written as SMILES. Several values for one entry are separate records, joined by “and”; a condition that tells them apart may be missing. Equal values may be shown once. Toxic doses and inconclusive results are not listed.

Consider `CC1=C/C(=N\Nc2ccccc2)C(C(O)(C(F)(F)Cl)C(F)(F)Cl)C(C)(C)C1` (stereo unspecified), for which the T/C under setting [1] was 96 % of control, the T/C under setting [2] was 94 % of control and the T/C under setting [3] was 93 % of control.

For the molecule `CS(C)(=O)=C/C(=C\C(=O)c1ccccc1)c1ccccc1`, the T/C by setting is: (endpoint: mean survival time, dose: 25.0 mg/kg/injection, schedule: Q01DX009 (ip), vehicle: saline) 94 % of control; under setting [4], 94 % of control; under setting [5], 94 % of control.

Consider `CCC(=O)OCCn1c2ccccc2c2c(C)c3cnccc3c(C)c21`, for which the T/C was 110 % of control under setting [6]; 102 % of control under setting [1]; 107 % of control under setting [2]; 154 % of control under setting [7]; 123 % of control under setting [3].

For `O=C1CCC2(CCCCC2)N1`, the T/C was 107 % of control (endpoint: mean survival time, dose: 1.25 mg/kg/injection, schedule: Q01DX009 (ip), vehicle: saline); 107 % of control (endpoint: mean survival time, dose: 2.5 mg/kg/injection, schedule: Q01DX009 (ip), vehicle: saline); 96 % of control (endpoint: mean survival time, dose: 3.13 mg/kg/injection, schedule: Q01DX009 (ip), vehicle: saline); 103 % of control (endpoint: mean survival time, dose: 5.0 mg/kg/injection, schedule: Q01DX009 (ip), vehicle: saline); 101 % of control (endpoint: mean survival time, dose: 6.25 mg/kg/injection, schedule: Q01DX009 (ip), vehicle: saline); 98 % of control and 101 % of control (endpoint: mean survival time, dose: 12.5 mg/kg/injection, schedule: Q01DX009 (ip), vehicle: saline).

As to `O=C1c2ccccc2C(=O)N1CCS(=O)(=O)O`, the T/C was 97 % of control under setting [8], 94 % of control under setting [9] and 94 % of control under setting [10].

Consider `Nc1nc(-c2cccc3ccccc23)cc2ccccc12`, for which the T/C (endpoint: mean survival time, dose: 12.5 mg/kg/injection, schedule: Q01DX009 (ip), vehicle: saline with Tween-80) was 89 % of control and 98 % of control; the T/C (endpoint: mean survival time, dose: 25.0 mg/kg/injection, schedule: Q01DX009 (ip), vehicle: saline with Tween-80) is 101 % of control and 102 % of control; the T/C (endpoint: mean survival time, dose: 50.0 mg/kg/injection, schedule: Q01DX009 (ip), vehicle: saline with Tween-80) was 104 % of control and 105 % of control; the T/C under setting [6] was 112 % of control and 97 % of control; the T/C under setting [11] was 118 % of control and 106 % of control.

As to `C=CCOP(=O)(OCC=C)C1(Cl)C(Cl)=C(Cl)C(=O)C(Cl)=C1Cl`, the T/C is 96 % of control (endpoint: mean survival time, dose: 25.0 mg/kg/injection, schedule: Q01DX009 (ip), vehicle: saline + alcohol); 96 % of control (endpoint: mean survival time, dose: 50.0 mg/kg/injection, schedule: Q01DX009 (ip), vehicle: saline + alcohol); 96 % of control (endpoint: mean survival time, dose: 100.0 mg/kg/injection, schedule: Q01DX009 (ip), vehicle: saline + alcohol); 100 % of control under setting [6].

Turning to `CCN(CC)CCSC(=O)c1ccccc1`, the T/C is 103 % of control under setting [4] and 103 % of control under setting [5].

For `BrCC(Br)c1ccccc1` (stereo unspecified), the T/C runs as follows: under setting [1], 100 % of control; under setting [2], 100 % of control; under setting [3], 96 % of control.

Turning to `Cn1ncc(C#N)c1N`, the T/C was 117 % of control (endpoint: mean survival time, dose: 100.0 mg/kg/injection, schedule: Q01DX001 (ip), vehicle: Klucel (hydroxypropylcellulose) (HPC)); 102 % of control (endpoint: mean survival time, dose: 200.0 mg/kg/injection, schedule: Q01DX001 (ip), vehicle: Klucel (hydroxypropylcellulose) (HPC)); 102 % of control (endpoint: mean survival time, dose: 400.0 mg/kg/injection, schedule: Q01DX001 (ip), vehicle: Klucel (hydroxypropylcellulose) (HPC)).

On to `CC(NC(=O)OCc1ccccc1)C(=O)NC(CC(=O)O)C(=O)O` (stereo unspecified), for which, under setting [12], the T/C was 92 % of control.

Consider `Cc1ccccc1NC(=O)Oc1ccc(C(C)(C)C)cc1`, for which the T/C is 97 % of control under setting [8], 86 % of control under setting [9] and 89 % of control under setting [10].

For the molecule `CCCCCCCCCCCCCCCC[N+]1(CC)CC[N+](CC)(CCCCCCCCCCCCCCCC)CC1` (stereo unspecified), the T/C runs as follows: (endpoint: mean survival time, dose: 100.0 mg/kg/injection, schedule: Q04DX003 (ip), vehicle: Klucel (hydroxypropylcellulose) (HPC)) 96 % of control; (endpoint: mean survival time, dose: 200.0 mg/kg/injection, schedule: Q04DX003 (ip), vehicle: Klucel (hydroxypropylcellulose) (HPC)) 90 % of control; (endpoint: mean survival time, dose: 400.0 mg/kg/injection, schedule: Q04DX003 (ip), vehicle: Klucel (hydroxypropylcellulose) (HPC)) 100 % of control.

On to `COC(=O)c1ccc(=O)c2nc3/c(=C/O)c(O)cc(=O)c3[nH]c12`, for which the T/C (endpoint: mean survival time, dose: 5.0 mg/kg/injection, schedule: Q04DX003 (ip), vehicle: saline with Tween-80) is 107 % of control and the T/C (endpoint: mean survival time, dose: 10.0 mg/kg/injection, schedule: Q04DX003 (ip), vehicle: saline with Tween-80) was 90 % of control.

Take `CC(=O)Nc1cc(CN2CCCCC2)c(O)c2ncccc12`: the T/C (endpoint: mean survival time, dose: 75.0 mg/kg/injection, schedule: Q01DX001 (ip), vehicle: other) is 102 % of control and the T/C (endpoint: mean survival time, dose: 150.0 mg/kg/injection, schedule: Q01DX001 (ip), vehicle: other) was 102 % of control.

As to `CCN(CC)c1ccc2cc3ccc(=[N+](CC)CC)cc-3oc2c1`, under “endpoint: mean survival time, dose: 9.0 mg/kg/injection, schedule: Q01DX010 (ip), vehicle: saline”, the T/C was 106 % of control.

For `CCC(C)NC(=O)C1C2CCC(C2)C1C(=O)NC(C)CC` (stereo unspecified), the T/C was 98 % of control under setting [1], 98 % of control under setting [2] and 102 % of control under setting [3].

Turning to `CC(=O)NCC(O)(C1CC1)C1CC1`, the T/C is, setting by setting: (endpoint: mean survival time, dose: 100.0 mg/kg/injection, schedule: Q04DX002 (ip), vehicle: saline) 102 % of control; (endpoint: mean survival time, dose: 200.0 mg/kg/injection, schedule: Q04DX002 (ip), vehicle: saline) 98 % of control; (endpoint: mean survival time, dose: 400.0 mg/kg/injection, schedule: Q04DX002 (ip), vehicle: saline) 94 % of control.

Consider `CCOC(=O)c1c(-c2ccccc2)[nH]c2ccccc2c1=O`, for which the T/C reads like this: under setting [1], 96 % of control; under setting [2], 98 % of control; under setting [3], 95 % of control.

Regarding `C[N+]1(CCC(c2ccccc2)c2ccccc2)CCCCC1`, the T/C runs as follows: (endpoint: mean survival time, dose: 12.5 mg/kg/injection, schedule: Q04DX003 (ip), vehicle: saline) 96 % of control; under setting [13], 104 % of control; under setting [14], 102 % of control.

For `NC(=O)c1c[nH]n(C2OC(CO)C(O)C2O)c1=O` (stereo unspecified), the T/C was 100 % of control (endpoint: median survival time, dose: 49.9 mg/kg/injection, schedule: Q01DX005 (ip), vehicle: saline); 94 % of control (endpoint: median survival time, dose: 99.8 mg/kg/injection, schedule: Q01DX005 (ip), vehicle: saline); 94 % of control (endpoint: median survival time, dose: 199.6 mg/kg/injection, schedule: Q01DX005 (ip), vehicle: saline).

Consider `O=C(O)/C=C/c1ccco1`, for which the T/C under setting [6] was 95 % of control; the T/C under setting [1] is 101 % of control; the T/C under setting [11] was 94 % of control; the T/C under setting [2] is 98 % of control; the T/C under setting [7] was 96 % of control; the T/C under setting [3] is 108 % of control.

As for `CCC(=O)c1ccc2c(c1)N(C(C)CN(C)C)c1ccccc1S2` (stereo unspecified), the T/C is, setting by setting: under setting [13], 97 % of control; under setting [14], 97 % of control; under setting [12], 101 % of control.

`Cc1cc(C)c(/C(O)=C/C(=S)N2CCOCC2)c(C)c1`: the T/C is 98 % of control under setting [1], 98 % of control under setting [2] and 98 % of control under setting [3].
